# Source: publication PMC7862066, “A novel UBE2T inhibitor suppresses Wnt/β-catenin signaling hyperactivation and gastric cancer progression by blocking RACK1 ubiquitination” (Oncogene, 2020)
# Target: T1, UBE2T (Homo sapiens, UniProt Q9NPD8)
# T1 construct: fluorescently labelled UBE2T protein for MST
# Assay: microscale thermophoresis
# Format: binding
# Conditions: fluorescently labelled UBE2T; compound titrated 31 nM to 500 μM
# T1 sequence (Q9NPD8 whole entry): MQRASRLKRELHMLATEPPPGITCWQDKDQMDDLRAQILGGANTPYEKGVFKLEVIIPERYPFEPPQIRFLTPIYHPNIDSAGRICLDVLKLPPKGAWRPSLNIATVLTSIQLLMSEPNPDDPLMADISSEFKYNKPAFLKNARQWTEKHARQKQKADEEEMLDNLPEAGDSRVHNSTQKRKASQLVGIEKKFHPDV
structure (smiles),measurement,value
NS(=O)(=O)c1ccc(NC(=O)c2c(O)c3c4c(sc3[nH]c2=O)CCCC4)cc1 [M435-1279],Kd,50.5 µM
